Assay results reported in ChEMBL document CHEMBL5728389, “Nicotinyl alcohol ether derivative, preparation method therefor, and pharmaceutical composition and uses thereof” (2021).

Target: Programmed cell death protein 1/Programmed cell death 1 ligand 1 (Homo sapiens, UniProt Q15116+Q9NZQ7)
Assay: In Vitro Activity Assay: In vitro activity evaluation: Cisbio PD-1/PD-L1 binding assay kit was applied for the detection method of in vitro enzymology level.Screening Principles and Methods of PD-1/PD-L1 Small Molecule Inhibitors1) Principle: PD-1 protein is with HIS tag, and PD-1 ligand PD-L1 is with hFc tag. Eu labeled anti-hFc antibody and XL665 labeled anti-HIS antibody are combined with the above two label proteins respectively. After laser excitation, energy can be transferred from donor Eu to receptor XL665, allowing XL665 to glow. […] Reagents should be dispensed in the following order. For 384-well white ELISA plate, 2 μl of diluent or target compound diluted with diluent was added to each well, and then 4 μl of PD-1 protein and 4 μl of PD-L1 protein were added per well, incubated for 15 min at room temperature; and 10 μl of a mixture of anti-Tag1-Eu3+ and anti-Tag2-XL665 was added per well and incubated for 1 h to 4 h at room temperature and the fluorescence signals at 665 nm and 620 nm were measured with an Envison instrument. HTRF rate=(665 nm/620 nm)*104. 8-10 concentrations were detected for each compound and IC50 was calculated by Graphpad software.
Assay type: protein-complex assay

Sequence of Programmed cell death protein 1/Programmed cell death 1 ligand 1 (Q15116 whole entry): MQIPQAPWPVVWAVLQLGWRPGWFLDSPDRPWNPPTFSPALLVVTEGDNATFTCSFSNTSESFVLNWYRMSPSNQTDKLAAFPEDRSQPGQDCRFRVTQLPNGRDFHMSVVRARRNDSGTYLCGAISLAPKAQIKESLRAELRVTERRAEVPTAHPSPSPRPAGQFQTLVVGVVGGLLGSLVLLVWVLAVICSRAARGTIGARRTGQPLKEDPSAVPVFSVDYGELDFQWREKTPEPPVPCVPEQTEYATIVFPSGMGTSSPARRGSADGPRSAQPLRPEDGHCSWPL
Sequence of Programmed cell death protein 1/Programmed cell death 1 ligand 1 (Q9NZQ7 whole entry): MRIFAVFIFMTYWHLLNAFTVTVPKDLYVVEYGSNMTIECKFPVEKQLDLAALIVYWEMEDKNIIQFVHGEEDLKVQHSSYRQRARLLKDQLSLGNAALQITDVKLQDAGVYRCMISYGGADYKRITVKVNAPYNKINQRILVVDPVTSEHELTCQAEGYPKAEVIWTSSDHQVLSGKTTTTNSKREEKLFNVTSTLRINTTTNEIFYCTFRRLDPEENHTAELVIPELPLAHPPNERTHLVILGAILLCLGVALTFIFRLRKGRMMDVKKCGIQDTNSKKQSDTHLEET

## NC(=O)C[C@H](NCc1cc(Cl)c(OCc2cccc(-c3ccccc3)c2Br)cc1OCc1cccnc1)C(=O)O
  IC50: 835 nM

## O=C(O)[C@H](CO)NCc1cc(Cl)c(OCc2cccc(-c3ccccc3)c2Cl)cc1OCc1cccnc1
  IC50: 40.1 nM

## OCCN(CCO)Cc1cc(Cl)c(OCc2cccc(-c3ccccc3)c2Br)cc1OCc1cccnc1
  IC50: 51 nM

## O=C(O)[C@H](CO)NCc1cc(Cl)c(OCc2cccc(-c3ccccc3)c2F)cc1OCc1cccnc1
  IC50: 134 nM

## O=C(O)[C@H](CO)NCc1cc(Cl)c(OCc2cccc(-c3ccccc3)c2)cc1OCc1cccnc1
  IC50: 318 nM

## O=S(=O)(O)CCNCc1cc(Cl)c(OCc2cccc(-c3ccccc3)c2Br)cc1OCc1cccnc1
  IC50: 16200 nM

## OCCNCc1cc(Cl)c(OCc2cccc(-c3ccccc3)c2Br)cc1OCc1cccnc1
  IC50: 53.8 nM

## C[C@H](NCc1cc(Cl)c(OCc2cccc(-c3ccccc3)c2Br)cc1OCc1cccnc1)C(=O)O
  IC50: 5.29 nM

## C/C(=C\C(=O)O)NCc1cc(Cl)c(OCc2cccc(-c3ccccc3)c2Br)cc1OCc1cccnc1
  IC50: 2.33 nM
